Experimental data: US20020165148A1, “Analogues and derivatives of gastrin releasing peptide (GRP)” (priority 2000, published 2002)

Tests used:
[1] = system: diabetic rats; assay: injection of GRP into diabetic rats, clearance of blood glucose; format: in vivo
[2] = system: pancreatic islet cells; conditions: pancreatic islet cells in vitro; cited from earlier work
[3] = target: T1, DPP IV (Rattus norvegicus, UniProt P14740); assay: inactivation by DPP IV cleavage / half-life in plasma; format: in vitro ADME
T1 construct: cleavage by the enzyme DPP IV in plasma; from tissue; host or cells: plasma
T1 sequence (P14740 37-767 limits assumed): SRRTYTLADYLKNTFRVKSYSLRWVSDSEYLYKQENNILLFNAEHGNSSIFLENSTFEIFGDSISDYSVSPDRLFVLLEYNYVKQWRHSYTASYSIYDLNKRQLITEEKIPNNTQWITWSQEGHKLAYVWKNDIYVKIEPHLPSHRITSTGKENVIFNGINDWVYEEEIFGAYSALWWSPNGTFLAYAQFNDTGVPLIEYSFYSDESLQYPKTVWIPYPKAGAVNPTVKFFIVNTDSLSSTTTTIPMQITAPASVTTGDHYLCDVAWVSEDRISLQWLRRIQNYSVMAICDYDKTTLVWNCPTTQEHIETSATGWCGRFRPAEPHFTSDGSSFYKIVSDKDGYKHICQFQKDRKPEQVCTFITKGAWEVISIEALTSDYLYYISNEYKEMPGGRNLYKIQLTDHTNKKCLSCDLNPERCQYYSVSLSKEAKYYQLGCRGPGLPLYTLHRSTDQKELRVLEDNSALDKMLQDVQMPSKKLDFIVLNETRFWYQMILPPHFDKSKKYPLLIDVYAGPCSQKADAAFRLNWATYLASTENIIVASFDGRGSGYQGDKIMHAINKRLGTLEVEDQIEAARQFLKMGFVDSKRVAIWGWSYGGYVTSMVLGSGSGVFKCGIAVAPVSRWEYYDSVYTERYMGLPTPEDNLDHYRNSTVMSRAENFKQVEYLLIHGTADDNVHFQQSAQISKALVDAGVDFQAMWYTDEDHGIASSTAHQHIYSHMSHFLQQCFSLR

## CSCC[C@H](NC(=O)[C@H](CC(C)C)NC(=O)[C@H](Cc1c[nH]cn1)NC(=O)CNC(=O)[C@@H](NC(=O)[C@H](C)NC(=O)[C@H](Cc1c[nH]c2ccccc12)NC(=O)[C@H](Cc1c[nH]cn1)NC(=O)[C@H](CC(N)=O)NC(=O)CNC(=O)[C@H](CCCNC(=N)N)NC(=O)[C@@H]1CCCN1C(=O)[C@H](Cc1ccc(O)cc1)NC(=O)[C@H](CCSC)NC(=O)[C@H](CCCCN)NC(=O)[C@@H](NC(=O)[C@H](CC(C)C)NC(=O)[C@@H](NC(=O)[C@@H](NC(=O)CNC(=O)CNC(=O)CNC(=O)[C@H](C)NC(=O)[C@@H]1CCCN1C(=O)[C@H](CC(C)C)NC(=O)[C@@H]1CCCN1C(=O)[C@@H](N)C(C)C)[C@@H](C)O)C(C)C)[C@@H](C)O)C(C)C)C(N)=O [GRP]
[1]; in vivo, diabetic rats
  duration of glucose-lowering action: only for a short period of time
[1]; injection into diabetic rats
  clearance of blood glucose: markedly accelerated clearance of blood glucose
[2]
  potentiation of glucose-induced insulin secretion: potentiate glucose-induced insulin secretion
[3]
  inactivation as a result of cleavage by DPP IV in plasma: rapid inactivation
